Data as given in ChEMBL document CHEMBL1240358, “Activity of a new antipseudomonal cephalosporin, CXA-101 (FR264205), against carbapenem-resistant and multidrug-resistant Pseudomonas aeruginosa clinical strains” (2010).
Values after ≈ are worked out from the molar mass of the structure shown.

Key:
Assay type in all cases: functional
Pseudomonas aeruginosa [1] = test: Antibacterial activity against imipenem-resistant Pseudomonas aeruginosa by broth microdilution method
Pseudomonas aeruginosa [2] = test: Antibacterial activity against Pseudomonas aeruginosa by broth microdilution method
Pseudomonas aeruginosa [3] = test: Antibacterial activity against imipenem-susceptible Pseudomonas aeruginosa by broth microdilution method
Pseudomonas aeruginosa [4] = test: Antibacterial activity against meropenem-susceptible Pseudomonas aeruginosa by broth microdilution method
Pseudomonas aeruginosa [5] = test: Antibacterial activity against meropenem-resistant Pseudomonas aeruginosa by broth microdilution method
Pseudomonas aeruginosa [6] = test: Antibacterial activity against piperacillin-susceptible Pseudomonas aeruginosa by broth microdilution method
Pseudomonas aeruginosa [7] = test: Antibacterial activity against piperacillin-resistant Pseudomonas aeruginosa by broth microdilution method
Pseudomonas aeruginosa [8] = test: Antibacterial activity against piperacillin- and tazobactam-susceptible Pseudomonas aeruginosa by broth microdilution method
Pseudomonas aeruginosa [9] = test: Antibacterial activity against piperacillin- and tazobactam-resistant Pseudomonas aeruginosa by broth microdilution method
Pseudomonas aeruginosa [10] = test: Antibacterial activity against ceftazidime-susceptible Pseudomonas aeruginosa by broth microdilution method
Pseudomonas aeruginosa [11] = test: Antibacterial activity against ceftazidime-resistant Pseudomonas aeruginosa by broth microdilution method
Pseudomonas aeruginosa [12] = test: Antibacterial activity against aztreonam-susceptible Pseudomonas aeruginosa by broth microdilution method
Pseudomonas aeruginosa [13] = test: Antibacterial activity against aztreonam-resistant Pseudomonas aeruginosa by broth microdilution method
Pseudomonas aeruginosa [14] = test: Antibacterial activity against gentamicin-susceptible Pseudomonas aeruginosa by broth microdilution method
Pseudomonas aeruginosa [15] = test: Antibacterial activity against gentamicin-resistant Pseudomonas aeruginosa by broth microdilution method
Pseudomonas aeruginosa [16] = test: Antibacterial activity against tobramycin-susceptible Pseudomonas aeruginosa by broth microdilution method
Pseudomonas aeruginosa [17] = test: Antibacterial activity against tobramycin-resistant Pseudomonas aeruginosa by broth microdilution method
Pseudomonas aeruginosa [18] = test: Antibacterial activity against amikacin-susceptible Pseudomonas aeruginosa by broth microdilution method
Pseudomonas aeruginosa [19] = test: Antibacterial activity against amikacin-resistant Pseudomonas aeruginosa by broth microdilution method
Pseudomonas aeruginosa [20] = test: Antibacterial activity against ciprofloxacin -susceptible Pseudomonas aeruginosa by broth microdilution method
Pseudomonas aeruginosa [21] = test: Antibacterial activity against ciprofloxacin-resistant Pseudomonas aeruginosa by broth microdilution method
Pseudomonas aeruginosa [22] = test: Antibacterial activity against non-multidrug-resistant Pseudomonas aeruginosa by broth microdilution method
Pseudomonas aeruginosa [23] = test: Antibacterial activity against multidrug-resistant Pseudomonas aeruginosa by broth microdilution method
Pseudomonas aeruginosa [24] = test: Antibacterial activity against Pseudomonas aeruginosa isolated from non-intensive care unit patient by broth microdilution method
Pseudomonas aeruginosa [25] = test: Antibacterial activity against Pseudomonas aeruginosa isolated from intensive care unit patient by broth microdilution method
Pseudomonas aeruginosa [26] = test: Antibacterial activity against Pseudomonas aeruginosa harboring low level of beta lactamase AmpC by broth microdilution method
Pseudomonas aeruginosa [27] = test: Antibacterial activity against Pseudomonas aeruginosa harboring high level of beta lactamase AmpC by broth microdilution method
Pseudomonas aeruginosa [28] = test: Antibacterial activity against carbapenem-resistant Pseudomonas aeruginosa isolate 1C2 PTOL1 harboring beta-lactamase OXA-17 by broth microdilution method
Pseudomonas aeruginosa [29] = test: Antibacterial activity against carbapenem-resistant Pseudomonas aeruginosa isolate 1C3 PTOL1 harboring acquired beta-lactamase OXA-17 by broth microdilution method
Pseudomonas aeruginosa [30] = test: Antibacterial activity against carbapenem-resistant Pseudomonas aeruginosa isolate 1E1 PpA1 harboring acquired beta-lactamase OXA-144 by broth microdilution method
Pseudomonas aeruginosa [31] = test: Antibacterial activity against carbapenem-resistant Pseudomonas aeruginosa isolate 1E2 PpA1 harboring acquired beta-lactamase OXA-144 by broth microdilution method
Pseudomonas aeruginosa [32] = test: Antibacterial activity against carbapenem-resistant Pseudomonas aeruginosa isolate 1E3 PpA2 harboring acquired beta-lactamase OXA-101 by broth microdilution method
Pseudomonas aeruginosa [33] = test: Antibacterial activity against carbapenem-resistant Pseudomonas aeruginosa isolate 1B2 RCA2 harboring acquired beta-lactamase PER-1 by broth microdilution method
Pseudomonas aeruginosa [34] = test: Antibacterial activity against carbapenem-resistant Pseudomonas aeruginosa isolate 1D5 SA1 harboring acquired beta-lactamase VIM-2 by broth microdilution method
Pseudomonas aeruginosa [35] = test: Antibacterial activity against carbapenem-resistant Pseudomonas aeruginosa isolate 3C1 VAL6 by broth microdilution method
Pseudomonas aeruginosa [36] = test: Antibacterial activity against carbapenem-resistant Pseudomonas aeruginosa isolate 3C8 GM1 harboring acquired beta-lactamase OXA-144 by broth microdilution method
Pseudomonas aeruginosa [37] = test: Antibacterial activity against carbapenem-resistant Pseudomonas aeruginosa isolate 3C9 GM1 harboring acquired beta-lactamase OXA-144 by broth microdilution method
Pseudomonas aeruginosa [38] = test: Antibacterial activity against carbapenem-resistant Pseudomonas aeruginosa isolate 3D2 GM2 harboring acquired beta-lactamase BEL-3 by broth microdilution method
Pseudomonas aeruginosa [39] = test: Antibacterial activity against ticarcillin-susceptible Pseudomonas aeruginosa by broth microdilution method
Pseudomonas aeruginosa [40] = test: Antibacterial activity against ticarcillin-resistant Pseudomonas aeruginosa by broth microdilution method
Pseudomonas aeruginosa [41] = test: Antibacterial activity against Pseudomonas aeruginosa PAO1 by broth microdilution method
Pseudomonas aeruginosa [42] = test: Antibacterial activity against Pseudomonas aeruginosa PAO1 harboring acquired beta-lactamase OXA-2 by broth microdilution method
Pseudomonas aeruginosa [43] = test: Antibacterial activity against Pseudomonas aeruginosa PAO1 harboring acquired beta-lactamase OXA-144 by broth microdilution method
Pseudomonas aeruginosa [44] = test: Antibacterial activity against multidrug-resistant Pseudomonas aeruginosa isolated from patient with cystic fibrosis
Pseudomonas aeruginosa [45] = test: Antibacterial activity against cephalosporin-resistant Pseudomonas aeruginosa clinical isolates
Pseudomonas aeruginosa [46] = test: Antibacterial activity against cefepime-resistant Pseudomonas aeruginosa by broth microdilution method
Pseudomonas aeruginosa [47] = test: Antibacterial activity against cefepime-susceptible Pseudomonas aeruginosa by broth microdilution method

Cn1c(N)c(NC(=O)NCCN)c[n+]1CC1=C(C(=O)O)N2C(=O)[C@@H](NC(=O)/C(=N\OC(C)(C)C(=O)[O-])c3nsc(N)n3)[C@H]2SC1 [CEFTOLOZANE]
MIC50 (Pseudomonas aeruginosa [1]): 1 µg/mL (≈ 1.5 µM) | MIC90 (Pseudomonas aeruginosa [1]): 4 µg/mL (≈ 6 µM) | MIC50 (Pseudomonas aeruginosa [2]): 1 µg/mL (≈ 1.5 µM) | MIC90 (Pseudomonas aeruginosa [2]): 4 µg/mL (≈ 6 µM) | MIC50 (Pseudomonas aeruginosa [3]): 1 µg/mL (≈ 1.5 µM) | MIC90 (Pseudomonas aeruginosa [3]): 4 µg/mL (≈ 6 µM) | MIC50 (Pseudomonas aeruginosa [4]): 1 µg/mL (≈ 1.5 µM) | MIC90 (Pseudomonas aeruginosa [4]): 2 µg/mL (≈ 3 µM) | MIC50 (Pseudomonas aeruginosa [5]): 1 µg/mL (≈ 1.5 µM) | MIC90 (Pseudomonas aeruginosa [5]): 4 µg/mL (≈ 6 µM) | MIC50 (Pseudomonas aeruginosa [6]): 1 µg/mL (≈ 1.5 µM) | MIC90 (Pseudomonas aeruginosa [6]): 2 µg/mL (≈ 3 µM) | MIC50 (Pseudomonas aeruginosa [7]): 1 µg/mL (≈ 1.5 µM) | MIC90 (Pseudomonas aeruginosa [7]): 8 µg/mL (≈ 12 µM) | MIC50 (Pseudomonas aeruginosa [8]): 1 µg/mL | MIC90 (Pseudomonas aeruginosa [8]): 2 µg/mL | MIC50 (Pseudomonas aeruginosa [9]): 1 µg/mL | MIC90 (Pseudomonas aeruginosa [9]): 4 µg/mL | MIC50 (Pseudomonas aeruginosa [10]): 1 µg/mL (≈ 1.5 µM) | MIC90 (Pseudomonas aeruginosa [10]): 2 µg/mL (≈ 3 µM) | MIC50 (Pseudomonas aeruginosa [11]): 1 µg/mL (≈ 1.5 µM) | MIC90 (Pseudomonas aeruginosa [11]): 4 µg/mL (≈ 6 µM) | MIC50 (Pseudomonas aeruginosa [12]): 1 µg/mL (≈ 1.5 µM) | MIC90 (Pseudomonas aeruginosa [12]): 2 µg/mL (≈ 3 µM) | MIC50 (Pseudomonas aeruginosa [13]): 1 µg/mL (≈ 1.5 µM) | MIC90 (Pseudomonas aeruginosa [13]): 4 µg/mL (≈ 6 µM) | MIC50 (Pseudomonas aeruginosa [14]): 1 µg/mL (≈ 1.5 µM) | MIC90 (Pseudomonas aeruginosa [14]): 2 µg/mL (≈ 3 µM) | MIC50 (Pseudomonas aeruginosa [15]): 1 µg/mL (≈ 1.5 µM) | MIC90 (Pseudomonas aeruginosa [15]): 4 µg/mL (≈ 6 µM) | MIC50 (Pseudomonas aeruginosa [16]): 1 µg/mL (≈ 1.5 µM) | MIC90 (Pseudomonas aeruginosa [16]): 2 µg/mL (≈ 3 µM) | MIC50 (Pseudomonas aeruginosa [17]): 1 µg/mL (≈ 1.5 µM) | MIC90 (Pseudomonas aeruginosa [17]): 4 µg/mL (≈ 6 µM) | MIC50 (Pseudomonas aeruginosa [18]): 1 µg/mL (≈ 1.5 µM) | MIC90 (Pseudomonas aeruginosa [18]): 2 µg/mL (≈ 3 µM) | MIC50 (Pseudomonas aeruginosa [19]): 1 µg/mL (≈ 1.5 µM) | MIC90 (Pseudomonas aeruginosa [19]): 64 µg/mL (≈ 96 µM) | MIC50 (Pseudomonas aeruginosa [20]): 1 µg/mL (≈ 1.5 µM) | MIC90 (Pseudomonas aeruginosa [20]): 2 µg/mL (≈ 3 µM) | MIC50 (Pseudomonas aeruginosa [21]): 1 µg/mL (≈ 1.5 µM) | MIC90 (Pseudomonas aeruginosa [21]): 4 µg/mL (≈ 6 µM) | MIC50 (Pseudomonas aeruginosa [22]): 1 µg/mL (≈ 1.5 µM) | MIC90 (Pseudomonas aeruginosa [22]): 2 µg/mL (≈ 3 µM) | MIC50 (Pseudomonas aeruginosa [23]): 1 µg/mL (≈ 1.5 µM) | MIC90 (Pseudomonas aeruginosa [23]): 4 µg/mL (≈ 6 µM) | MIC50 (Pseudomonas aeruginosa [24]): 1 µg/mL (≈ 1.5 µM) | MIC90 (Pseudomonas aeruginosa [24]): 2 µg/mL (≈ 3 µM) | MIC50 (Pseudomonas aeruginosa [25]): 1 µg/mL (≈ 1.5 µM) | MIC90 (Pseudomonas aeruginosa [25]): 4 µg/mL (≈ 6 µM) | MIC50 (Pseudomonas aeruginosa [26]): 1 µg/mL (≈ 1.5 µM) | MIC90 (Pseudomonas aeruginosa [26]): 2 µg/mL (≈ 3 µM) | MIC50 (Pseudomonas aeruginosa [27]): 1 µg/mL (≈ 1.5 µM) | MIC90 (Pseudomonas aeruginosa [27]): 4 µg/mL (≈ 6 µM) | MIC (Pseudomonas aeruginosa [28]): 64 µg/mL (≈ 96 µM) | MIC (Pseudomonas aeruginosa [29]): 64 µg/mL (≈ 96 µM) | MIC (Pseudomonas aeruginosa [30]): 32 µg/mL (≈ 48 µM) | MIC (Pseudomonas aeruginosa [31]): 64 µg/mL (≈ 96 µM) | MIC (Pseudomonas aeruginosa [32]): 32 µg/mL (≈ 48 µM) | MIC (Pseudomonas aeruginosa [33]): 64 µg/mL (≈ 96 µM) | MIC (Pseudomonas aeruginosa [34]): 64 µg/mL (≈ 96 µM) | MIC (Pseudomonas aeruginosa [35]): 64 µg/mL (≈ 96 µM) | MIC (Pseudomonas aeruginosa [36]): 32 µg/mL (≈ 48 µM) | MIC (Pseudomonas aeruginosa [37]): 32 µg/mL (≈ 48 µM) | MIC (Pseudomonas aeruginosa [38]): 32 µg/mL (≈ 48 µM) | MIC50 (Pseudomonas aeruginosa [39]): 1 µg/mL (≈ 1.5 µM) | MIC90 (Pseudomonas aeruginosa [39]): 2 µg/mL (≈ 3 µM) | MIC50 (Pseudomonas aeruginosa [40]): 1 µg/mL (≈ 1.5 µM) | MIC90 (Pseudomonas aeruginosa [40]): 8 µg/mL (≈ 12 µM) | MIC (Pseudomonas aeruginosa [41]): 0.25 µg/mL (≈ 0.375 µM) | MIC (Pseudomonas aeruginosa [42]): 0.5 µg/mL (≈ 0.75 µM) | MIC (Pseudomonas aeruginosa [43]): 32 µg/mL (≈ 48 µM) | MIC (Pseudomonas aeruginosa [44]): > 8 µg/mL | MIC50 (Pseudomonas aeruginosa [45]): 0.51 µg/mL (≈ 0.765 µM) | MIC90 (Pseudomonas aeruginosa [45]): 1 µg/mL (≈ 1.5 µM) | MIC50 (Pseudomonas aeruginosa [46]): 1 µg/mL (≈ 1.5 µM) | MIC90 (Pseudomonas aeruginosa [46]): 4 µg/mL (≈ 6 µM) | MIC50 (Pseudomonas aeruginosa [47]): 0.5 µg/mL (≈ 0.75 µM) | MIC90 (Pseudomonas aeruginosa [47]): 2 µg/mL (≈ 3 µM)
